According to ChEMBL document CHEMBL1201862, “PubChem BioAssay data set” (2004):
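All cell lines were grown in 96-well plates and treated with compound for 48 hours. Abbreviation: GI50, concentration required for 50% inhibition of growth.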 The source made the active and inactive calls. No stated cut-off is given here; in the data, active = GI50 up to about 1.1 µM and inactive = higher.

Assays:
Test in all cases: growth of human tumour cells (NCI), 48 h
UACC-257 = test system: UACC-257
LOX IMVI = test system: LOX IMVI
DU-145 = test system: DU-145
UACC-62 = test system: UACC-62
Hs-578T = test system: Hs-578T
Malme-3M = test system: Malme-3M
SNB-19 = test system: SNB-19
MDA-MB-435 = test system: MDA-MB-435
KM12 = test system: KM12
MDA-N = test system: MDA-N
SF-539 = test system: SF-539
UO-31 = test system: UO-31
PC-3 = test system: PC-3
SW-620 = test system: SW-620
NCI-H226 = test system: NCI-H226
RPMI-8226 = test system: RPMI-8226
SK-MEL-5 = test system: SK-MEL-5
OVCAR-8 = test system: OVCAR-8
OVCAR-4 = test system: OVCAR-4
786-0 = test system: 786-0
T47D = test system: T47D
SNB-75 = test system: SNB-75
U-251 = test system: U-251
CAKI-1 = test system: CAKI-1
HCT-15 = test system: HCT-15
MDA-MB-231 = test system: MDA-MB-231
M14 = test system: M14
SK-MEL-2 = test system: SK-MEL-2
HOP-62 = test system: HOP-62
NCI/ADR-RES = test system: NCI/ADR-RES
SR = test system: SR
SK-MEL-28 = test system: SK-MEL-28
RXF 393 = test system: RXF 393
HCC 2998 = test system: HCC 2998
SF-268 = test system: SF-268
TK-10 = test system: TK-10
MCF7 = test system: MCF7
HOP-92 = test system: HOP-92
HT-29 = test system: HT-29
A549 = test system: A549
MOLT-4 = test system: MOLT-4
IGROV-1 = test system: IGROV-1
CCRF-CEM = test system: CCRF-CEM
SF-295 = test system: SF-295
SK-OV-3 = test system: SK-OV-3
NCI-H460 = test system: NCI-H460
NCI-H23 = test system: NCI-H23
A498 = test system: A498
COLO 205 = test system: COLO 205
HL-60 = test system: HL-60
SN12C = test system: SN12C
BT-549 = test system: BT-549
HCT-116 = test system: HCT-116
OVCAR-3 = test system: OVCAR-3
K562 = test system: K562
ACHN = test system: ACHN
EKVX = test system: EKVX
OVCAR-5 = test system: OVCAR-5

CC(C)CCCC(C)[C@H]1CC[C@H]2n3c(nnc3-c3ccccc3)CCC[C@]12C (some centres not stated)
GI50 (UACC-257): 13.3 µM (inactive) | GI50 (LOX IMVI): 1.86 µM (inactive) | GI50 (DU-145): 16.2 µM (inactive) | GI50 (UACC-62): 12.4 µM (inactive) | GI50 (Hs-578T): 18.4 µM (inactive) | GI50 (Malme-3M): 23.2 µM (inactive) | GI50 (SNB-19): 11.8 µM (inactive) | GI50 (MDA-MB-435): 10.7 µM (inactive) | GI50 (KM12): 28.8 µM (inactive) | GI50 (MDA-N): 13.6 µM (inactive) | GI50 (SF-539): 11.9 µM (inactive) | GI50 (UO-31): 10.4 µM (inactive) | GI50 (PC-3): 9.33 µM (inactive) | GI50 (SW-620): 6.21 µM (inactive) | GI50 (NCI-H226): 14.8 µM (inactive) | GI50 (RPMI-8226): 4.13 µM (inactive) | GI50 (SK-MEL-5): 10.7 µM (inactive) | GI50 (OVCAR-8): 15.9 µM (inactive) | GI50 (OVCAR-4): 12.5 µM (inactive) | GI50 (786-0): 14.6 µM (inactive) | GI50 (T47D): 11.7 µM (inactive) | GI50 (SNB-75): 17.5 µM (inactive) | GI50 (U-251): 7.19 µM (inactive) | GI50 (CAKI-1): 14 µM (inactive) | GI50 (HCT-15): 13.8 µM | GI50 (MDA-MB-231): 15 µM (inactive) | GI50 (M14): 12.8 µM (inactive) | GI50 (SK-MEL-2): 12.4 µM (inactive) | GI50 (HOP-62): 16 µM (inactive) | GI50 (NCI/ADR-RES): 9.93 µM (inactive) | GI50 (SR): 4.06 µM (inactive) | GI50 (SK-MEL-28): 16.9 µM (inactive) | GI50 (RXF 393): 11.5 µM (inactive) | GI50 (HCC 2998): < 0.01 µM (active) | GI50 (SF-268): 12.7 µM (inactive) | GI50 (TK-10): 21.5 µM (inactive) | GI50 (MCF7): 5.97 µM (inactive) | GI50 (HOP-92): 15.1 µM (inactive) | GI50 (HT-29): 17.5 µM (inactive) | GI50 (A549): 9.86 µM (inactive) | GI50 (MOLT-4): 3.96 µM (inactive) | GI50 (IGROV-1): 5.74 µM (inactive) | GI50 (CCRF-CEM): 3.49 µM (inactive) | GI50 (SF-295): 9.08 µM (inactive) | GI50 (SK-OV-3): 13.4 µM (inactive) | GI50 (NCI-H460): 9.91 µM (inactive) | GI50 (NCI-H23): 12.4 µM (inactive) | GI50 (A498): 14 µM (inactive) | GI50 (COLO 205): 3.21 µM (inactive) | GI50 (HL-60): 3.54 µM (inactive) | GI50 (SN12C): 8.91 µM (inactive) | GI50 (BT-549): 19.8 µM (inactive) | GI50 (HCT-116): 9.48 µM (inactive) | GI50 (OVCAR-3): 10.5 µM (inactive) | GI50 (K562): 3.8 µM (inactive)

COC(=O)/C=C/c1cc(OC)c2oc(-c3ccc(OC)c(OC)c3)c(C(=O)OC)c2c1
GI50 (UACC-257): > 100 µM (inactive) | GI50 (LOX IMVI): > 100 µM (inactive) | GI50 (DU-145): > 100 µM (inactive) | GI50 (UACC-62): > 100 µM (inactive) | GI50 (Hs-578T): > 100 µM (inactive) | GI50 (Malme-3M): > 100 µM (inactive) | GI50 (SNB-19): > 100 µM (inactive) | GI50 (MDA-MB-435): > 100 µM (inactive) | GI50 (ACHN): > 100 µM (inactive) | GI50 (KM12): > 100 µM (inactive) | GI50 (MDA-N): > 100 µM (inactive) | GI50 (UO-31): > 100 µM (inactive) | GI50 (PC-3): > 100 µM (inactive) | GI50 (SW-620): > 100 µM (inactive) | GI50 (RPMI-8226): > 100 µM (inactive) | GI50 (SK-MEL-5): > 100 µM (inactive) | GI50 (OVCAR-8): > 100 µM (inactive) | GI50 (OVCAR-4): > 100 µM (inactive) | GI50 (786-0): > 100 µM (inactive) | GI50 (T47D): > 100 µM (inactive) | GI50 (EKVX): > 100 µM (inactive) | GI50 (U-251): > 100 µM (inactive) | GI50 (CAKI-1): > 100 µM (inactive) | GI50 (HCT-15): > 100 µM | GI50 (MDA-MB-231): > 100 µM (inactive) | GI50 (M14): > 100 µM (inactive) | GI50 (SK-MEL-2): > 100 µM (inactive) | GI50 (NCI/ADR-RES): > 100 µM (inactive) | GI50 (SR): > 100 µM (inactive) | GI50 (SK-MEL-28): > 100 µM (inactive) | GI50 (HCC 2998): > 100 µM (inactive) | GI50 (SF-268): > 100 µM (inactive) | GI50 (TK-10): > 100 µM (inactive) | GI50 (MCF7): > 100 µM (inactive) | GI50 (HOP-92): > 100 µM (inactive) | GI50 (HT-29): > 100 µM (inactive) | GI50 (A549): > 100 µM (inactive) | GI50 (MOLT-4): > 100 µM (inactive) | GI50 (IGROV-1): > 100 µM (inactive) | GI50 (CCRF-CEM): > 100 µM (inactive) | GI50 (SF-295): > 100 µM (inactive) | GI50 (SK-OV-3): > 100 µM (inactive) | GI50 (NCI-H460): > 100 µM (inactive) | GI50 (NCI-H23): > 100 µM (inactive) | GI50 (A498): > 100 µM (inactive) | GI50 (COLO 205): > 100 µM (inactive) | GI50 (HL-60): > 100 µM (inactive) | GI50 (SN12C): > 100 µM (inactive) | GI50 (BT-549): > 100 µM (inactive) | GI50 (OVCAR-3): > 100 µM (inactive) | GI50 (K562): > 100 µM (inactive) | GI50 (OVCAR-5): > 100 µM (inactive)
